From PMC7504466, “In-Vitro and In-Silico Evaluations of Heterocyclic-Containing Diarylpentanoids as Bcl-2 Inhibitors Against LoVo Colorectal Cancer Cells” (Molecules, 2020)

Tests used:
[1] = tested on: normal human dermal fibroblasts (NHDF); test: MTT cytotoxicity assay, normal human dermal fibroblasts; format: cell-based; details: 72 h post-treatment
Method: (§1) The in-vitro cytotoxic activity of the synthesized compounds on seven human CRC cell lines including KRAS (T84, SW620, LoVo) and BRAF (HT29, NCI-H508, RKO and LS411N) mutated cells were determined by MTT assay as previously described. The IC50 values obtained are summarized in Table 2 in which 5-FU and normal human dermal fibroblasts (NHDF) were used as controls. Meanwhile, a heatmap (Figure 3) was also generated using GraphPad Prism v7.0 (GraphPad Software, La Jolla, CA, USA) to visualize the cytotoxic trends of synthesized compounds graphically.
(§2) A panel of KRAS (T84, SW620 and LoVo) and BRAF (HT29, NCI-H508, RKO and LS411N) mutated human CRC cell lines were grown in Dulbecco’s modified Eagle’s medium (DMEM) containing 10% fetal bovine serum (FBS) and 1% penicillin/streptomycin at 37 °C under 5% CO2 while NHDF cells were cultured in DMEM with 5% FBS under the same condition. The culture medium was replenished every two days until the cells reached 80–90% confluency for further usage. All cell lines (T84, ATCC®CCL-248™; SW620, ATCC®CCL-227™; LoVo, ATCC®CCL-229™; HT-29, ATCC®HTB-38; NCI-H508, ATCC®CCL-253™; RKO, ATCC®CRL-2577; LS411N, ATCC®CRL-2159; NHDF, ATCC® PCS-201-010™) were purchased from American Type culture Collections (ATCC, Manassas, VA, USA).
(§3) LoVo cells (1.5–5 × 10^3 cells/well) were seeded into a 96 well plate and incubated at 37 °C and 5% CO2 atmosphere for 24 h. On the following day, the cell media were replaced with 100 µL of test compounds at various concentration. The final concentration of DMSO in the well is 0.1%. After 72 h of incubation, culture medium was removed and 100 µL of MTT (thiazoyl blue tertrazolium bromide) solution (0.5 mg/mL in culture media) was added. The resultant plates were then further incubated at 37 °C for 4 h. Upon completion, the MTT solution was removed and the formazan salts formed were dissolved in 100 µL of DMSO. The absorbance was recorded with a microplate reader at 570 nm. The IC50 values of tested compounds were calculated from three independent experiments.

LoVo cells = test: MTT cytotoxicity assay, LoVo cells; format: cell-based; details: Homo sapiens, 72 h post-treatment, read-out: IC50 (µM) KRAS LoVo
Method: as §1, §2, §3

T84 cells = test: MTT cytotoxicity assay, T84 cells; format: cell-based; details: Homo sapiens, 72 h post-treatment, read-out: IC50 (µM) KRAS T84
Method: as §1, §2, §3

HT29 cells = test: MTT cytotoxicity assay, HT29 cells; format: cell-based; details: Homo sapiens, HT-29, 72 h post-treatment, read-out: IC50 (µM) BRAF HT29
Method: as §1, §2, §3

NCI-H508 cells = test: MTT cytotoxicity assay, NCI-H508 cells; format: cell-based; details: Homo sapiens, 72 h post-treatment, read-out: IC50 (µM) BRAF NCI-H508
Method: as §1, §2, §3

RKO cells = test: MTT cytotoxicity assay, RKO cells; format: cell-based; details: Homo sapiens, 72 h post-treatment, read-out: IC50 (µM) BRAF RKO
Method: as §1, §2, §3

SW620 cells = test: MTT cytotoxicity assay, SW620 cells; format: cell-based; details: Homo sapiens, SW-620, 72 h post-treatment, read-out: IC50 (µM) KRAS SW620
Method: as §1, §2, §3

LS411N cells = test: MTT cytotoxicity assay, LS411N cells; format: cell-based; details: Homo sapiens, LS-411N, 72 h post-treatment, read-out: IC50 (µM) BRAF LS411N
Method: as §1, §2, §3

[2] = tested on: human CRC cell lines (T84, SW620, LoVo, HT29, NCI-H508, RKO, LS411N); test: MTT cytotoxicity assay, panel of KRAS- and BRAF-mutated CRC cell lines; format: cell-based; details: several CRC cell lines, read-out: IC50 against several CRC cell lines
Method: as §1
A panel of KRAS (T84, SW620 and LoVo) and BRAF (HT29, NCI-H508, RKO and LS411N) mutated human CRC cell lines were grown in Dulbecco’s modified Eagle’s medium (DMEM) containing 10% fetal bovine serum (FBS) and 1% penicillin/streptomycin at 37 °C under 5% CO2 while NHDF cells were cultured in DMEM with 5% FBS under the same condition. The culture medium was replenished every two days until the cells reached 80–90% confluency for further usage. […]
LoVo cells (1.5–5 × 10^3 cells/well) were seeded into a 96 well plate and incubated at 37 °C and 5% CO2 atmosphere for 24 h. […] The absorbance was recorded with a microplate reader at 570 nm. The IC50 values of tested compounds were calculated from three independent experiments.

melting point | SMILES | IC50 [1] | IC50 (LoVo cells) | IC50 (T84 cells) | IC50 (HT29 cells) | IC50 (NCI-H508 cells) | IC50 (RKO cells) | IC50 (SW620 cells) | IC50 (LS411N cells) | IC50 [2]
 | O=c1[nH]cc(F)c(=O)[nH]1 [Compound 5-FU, 5-fluorouracil, reference compound] | > 20 µM | 3.3 µM | > 10 µM | > 10 µM | 8.6 µM | 2.9 µM | > 10 µM | 4.6 µM | 
 | O=C1C(=Cc2ccccc2Br)CCCC1=Cc1ccccc1Br [Compound 2b, 2,6-Bis(2-bromobenzylidene)cyclohexanone] | > 20 µM | > 10 µM | > 10 µM | > 10 µM | 7.8 µM | > 10 µM | 8.9 µM | > 10 µM | 
90 to 91 °C | O=C1C(=Cc2ccc(F)c(F)c2)CCCC1=Cc1ccc(F)c(F)c1 [Compound 2c, 2,6-Bis(3,4-difluorobenzylidene)cyclohexanone] | 12.9 µM | 3.3 µM | 3.3 µM | 5.4 µM | 3.3 µM | 2.6 µM | 3.2 µM | 3.7 µM | 
 | COc1ccccc1C=C1CCCC(=Cc2ccccc2OC)C1=O [Compound 2a, 2,6-Bis(2-methoxybenzylidene)cyclohexanone] | > 20 µM | > 10 µM | > 10 µM | > 10 µM | > 10 µM | > 10 µM | > 10 µM | > 10 µM | 
 | O=C1C(=Cc2ccc(F)c(F)c2)CSCC1=Cc1ccc(F)c(F)c1 [Compound 2f, 3,5-Bis(3,4-difluorobenzylidene)tetrahydro-4H-thiopyran-4-one] | 2 µM | 5.1 µM | > 10 µM | > 10 µM | 6.2 µM | 2.4 µM | 2.9 µM | 5.9 µM | 2.4 to 6.2 µM
120 to 121 °C | COc1ccccc1C=C1CSCC(=Cc2ccccc2OC)C1=O [Compound 2d, 3,5-Bis(2-methoxybenzylidene)tetrahydro-4H-thiopyran-4-one] | 9.7 µM | 6.9 µM | > 10 µM | > 10 µM | 5.3 µM | 7.1 µM | > 10 µM | 5.8 µM | 
